Like-named read-outs stand apart in the source and are kept apart here.
Legend:
[1] = Area under the curve determinations of plasma levels in rats (rrAUC), oral 10 mg/kg; type: in vivo; conditions: for AUC: rat, read-out: RR AUC (rapid rat AUC, rrAUC)
[2] = system: TNF-α production from human whole blood; assay: Inhibition of TNF-α production from human whole blood (hWBA), LPS stimulated, ELISA; type: cell-based; conditions: Homo sapiens, TNF-α by ELISA, read-out: hWBA (IC50)
[3] = target: T1, purified catalytic domain of recombinant human TACE (rhTACEc) (Homo sapiens, UniProt P78536, N452Q/S266A); assay: TACE kinetic assay: cleavage of internally quenched peptide substrate TNF-FRET 2 (Ki); type: biochemical; conditions: TNF-FRET 2 substrate
T1 construct: 6xHis (C); made in house; host or cells: baculovirus/Hi5 insect cells
T1 sequence (P78536 215-477 S266A/N452Q): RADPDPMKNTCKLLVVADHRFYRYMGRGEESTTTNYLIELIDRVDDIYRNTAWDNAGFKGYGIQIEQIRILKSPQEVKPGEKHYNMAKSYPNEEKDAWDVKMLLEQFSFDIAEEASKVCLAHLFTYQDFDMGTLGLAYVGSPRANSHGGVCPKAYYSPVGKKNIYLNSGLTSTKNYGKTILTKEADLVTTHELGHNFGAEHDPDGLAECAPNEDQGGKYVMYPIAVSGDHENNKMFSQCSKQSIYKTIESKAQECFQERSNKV

[4] = 3.5 h, human whole blood diluted 1:1, LPS stimulated, 3.5 h
[5] = plasma, blood collected 0.5-6 h post-dosing
[6] = human whole blood diluted 1:1, LPS stimulated
[7] = LPS-stimulated human whole blood
[8] = blood collected 0.5-6 h post-dosing

| Structure (SMILES) | AUC ([1]; plasma 0.5-6 h post-dosing) | IC50 [2, 4] | Ki ([3]; read-out: Ki) | IC50 [2, 7] | AUC ([1]; plasma 0.5-6 h) | also measured |
| --- | --- | --- | --- | --- | --- | --- |
| COc1ccc2c(c1)C(=O)N(C[C@@]1(c3cc4c(Cl)nccc4o3)NC(=O)NC1=O)C2 [Compound 2278] | 12.1 µM·h | 260 nM | 0.637 nM | – | – | – |
| COc1ccc2c(c1F)C(=O)N(C[C@@]1(c3cc4cc(-c5cn[nH]c5)c(F)cc4o3)NC(=O)NC1=O)C2 [Compound 1187] | 1.07 µM·h | 286 nM | 0.23 nM | – | – | – |
| COc1ccc2c(c1)C(=O)N(C[C@@]1(c3cc4ccc(C(=O)NCCN(C)C)cc4o3)NC(=O)NC1=O)C2 [Compound 2412] | – | – | 0.32 nM | – | – | AUC [1, 5]: 0.104 µM·h; IC50 [2, 6]: 115 nM |
| COc1ccc2c(c1)C(=O)N(C[C@@]1(c3cc4c(C5=NCCN5)nccc4o3)NC(=O)NC1=O)C2 [Compound 2274] | 0.033 µM·h | 2240 nM | 2 nM | – | – | – |
| CNC(=O)c1ccc2oc([C@]3(CN4Cc5ccc(OC)cc5C4=O)NC(=O)NC3=O)cc2n1 [Compound 1925] | – | – | 0.86 nM | 280 nM | – | RR AUC (rapid rat AUC, rrAUC) ([1]; plasma 0.5-6 h): 1.07 µM·h |
| CCc1cc2oc([C@]3(CN4Cc5ccc(OC)cc5C4=O)NC(=O)NC3=O)cc2cn1 [Compound 2290] | – | – | 0.264 nM | – | – | AUC [1, 5]: 20.3 µM·h; IC50 [2, 6]: 643 nM |
| COc1ccc2c(c1)C(=O)N(C[C@@]1(c3cc4cnc(-c5cccc(C#N)c5)cc4o3)NC(=O)NC1=O)C2 [Compound 2489] | – | – | 0.799 nM | – | – | AUC [1, 5]: 10.6 µM·h; IC50 [2, 6]: 8420 nM |
| COc1ccc2c(c1)C(=O)N(C[C@@]1(c3cc4nc(N5C[C@@H](O)CC5=O)ccc4o3)NC(=O)NC1=O)C2 [Compound 2154] | 0.393 µM·h | 125 nM | 0.645 nM | – | – | – |
| COc1ccc2c(c1)C(=O)N(C[C@@]1(c3cc4c(N5CCOCC5)nccc4o3)NC(=O)NC1=O)C2 [Compound 2281] | – | – | 0.458 nM | – | – | AUC [1, 5]: 0.749 µM·h; IC50 [2, 6]: 510 nM |
| COc1ccc2c(c1)C(=O)N(C[C@@]1(c3cc4nc(NS(=O)(=O)C5CC5)ccc4o3)NC(=O)NC1=O)C2 [Compound 2318] | – | – | 0.579 nM | – | – | RR AUC (rapid rat AUC, rrAUC) [1, 8]: 0.015 µM·h; IC50 [2, 6]: 518 nM |
| COc1ccc2c(c1)C(=O)N(C[C@@]1(c3cc4cnc(N5CCNC5=O)cc4o3)NC(=O)NC1=O)C2 [Compound 2252] | 1.18 µM·h | 206 nM | – | – | – | Ki ([3]; Ki): 1.79 nM |
| COc1ccc2c(c1)C(=O)N(C[C@@]1(c3cc4nc(-c5cnn(C)c5)ccc4o3)NC(=O)NC1=O)C2 [Compound 2104] | 0.369 µM·h | 285 nM | – | – | – | Ki ([3]; Ki): 0.191 nM |
| CCOc1ccc2c(c1F)C(=O)N(C[C@@]1(c3cc4nc(N5CCN(CC)CC5)ccc4o3)NC(=O)NC1=O)C2 [Compound 903] | – | – | 0.557 nM | 193 nM | 1 µM·h | – |
| COc1ccc2c(c1)C(=O)N(C[C@@]1(c3cc4cc(-c5ccccc5F)ncc4o3)NC(=O)NC1=O)C2 [Compound 2240] | 12.8 µM·h | 3640 nM | 0.714 nM | – | – | – |
| COc1ccc2c(c1F)C(=O)N(C[C@@]1(c3cc4nc(-n5ccnc5)ccc4o3)NC(=O)NC1=O)C2 [Compound 1523] | – | – | 0.6 nM | 289 nM | 4.29 µM·h | – |
| COc1ccc2c(c1F)C(=O)N(C[C@@]1(c3cc4nc(C5=CCNCC5)c(F)cc4o3)NC(=O)NC1=O)C2 [Compound 1320] | – | – | – | 55 nM | 0.101 µM·h | Ki ([3]; Ki): 0.37 nM |
| CCC1(c2cc(F)c3oc([C@]4(CN5Cc6ccc(OC)cc6C5=O)NC(=O)NC4=O)cc3c2)NC(=O)NC1=O (some centres unmarked) [Compound 2210] | 0.018 µM·h | 232 nM | 0.319 nM | – | – | – |
| COc1ccc2c(c1)C(=O)N(C[C@@]1(c3cc4ccc(-c5nnc(C)o5)cc4o3)NC(=O)NC1=O)C2 [Compound 2190] | 0.414 µM·h | 958 nM | 0.515 nM | – | – | – |
| COc1ccc2c(c1)C(=O)N(C[C@@]1(c3cc4nc(-c5ccc(C#N)nc5)ccc4o3)NC(=O)NC1=O)C2 [Compound 2472] | – | – | 0.745 nM | – | – | AUC [1, 5]: 0.536 µM·h; IC50 [2, 6]: 1610 nM |

| Structure (SMILES) | AUC ([1]; plasma 0.5-6 h post-dosing) | IC50 [2, 4] | Ki ([3]; read-out: Ki) | IC50 [2, 7] | AUC ([1]; plasma 0.5-6 h) | also measured |
| --- | --- | --- | --- | --- | --- | --- |
| CCN1CCC(c2nc3cc([C@]4(CN5Cc6ccc(OC)c(F)c6C5=O)NC(=O)NC4=O)oc3cc2F)CC1 [Compound 1325] | – | – | 1 nM | 175 nM | 0.009 µM·h | – |
| COc1ccc2c(c1)C(=O)N(C[C@@]1(c3cc4c(C(N)=O)nccc4o3)NC(=O)NC1=O)C2 [Compound 2401] | – | – | 0.58 nM | – | – | AUC [1, 5]: 1.43 µM·h; IC50 [2, 6]: 270 nM |
| COc1ccc2c(c1)C(=O)N(C[C@@]1(c3cc4cc(-c5ccccc5O)ncc4o3)NC(=O)NC1=O)C2 [Compound 2241] | 1.39 µM·h | ≥ 10000 nM | 1.19 nM | – | – | – |
| COc1ccc2c(c1)C(=O)N(C[C@@]1(c3cc4cc(N)ccc4o3)NC(=O)NC1=O)C2 [Compound 2226] | 0.467 µM·h | 573 nM | 0.807 nM | – | – | – |
| COc1ccc2c(c1)C(=O)N(C[C@@]1(c3cc4nc(N5CCCC(C(N)=O)C5)ccc4o3)NC(=O)NC1=O)C2 (some centres unmarked) [Compound 1515] | – | – | 0.7 nM | 245 nM | 0.145 µM·h | – |
| COc1ccc2c(c1F)C(=O)N(C[C@@]1(c3cc4nc(N5CCNC5=O)c(F)cc4o3)NC(=O)NC1=O)C2 [Compound 1331] | – | – | 0.66 nM | 310 nM | 0.67 µM·h | – |
| COc1ccc2c(c1F)C(=O)N(C[C@@]1(c3cc4ncc(C(=O)NC5CC5)cc4o3)NC(=O)NC1=O)C2 [Compound 1909] | – | – | 1.15 nM | 585 nM | 0.066 µM·h | – |
| COc1ccc2c(c1F)C(=O)N(C[C@@]1(c3cc4nc(N5CCN(C)C5=O)c(F)cc4o3)NC(=O)NC1=O)C2 [Compound 1329] | – | – | 0.59 nM | 234 nM | 0.226 µM·h | – |
| COc1ccc2c(c1F)C(=O)N(C[C@@]1(c3cc4nc(Cl)c(F)cc4o3)NC(=O)NC1=O)C2 [Compound 1328] | – | – | – | 2680 nM | 5.61 µM·h | Ki ([3]; Ki): 0.49 nM |
| COc1ccc2c(c1F)C(=O)N(C[C@@]1(c3cc4nc(N5C[C@@H](O)CC5=O)ccc4o3)NC(=O)NC1=O)C2 [Compound 1501] | – | – | 0.5 nM | 131 nM | 0.667 µM·h | – |
| COc1ccc2c(c1)C(=O)N(C[C@@]1(c3cc4nc(-c5cccc(C#N)c5)ccc4o3)NC(=O)NC1=O)C2 [Compound 2470] | – | – | 0.578 nM | – | – | AUC [1, 5]: 22.1 µM·h; IC50 [2, 6]: 803 nM |
| COc1ccc2c(c1)C(=O)N(C[C@@]1(c3cc4nc(N(c5cn[nH]c5)C5CCN(C)CC5)ccc4o3)NC(=O)NC1=O)C2 [Compound 1703] | – | – | – | – | 0.064 µM·h | Ki ([3]; Ki): 1 nM |
| COc1ccc2c(c1F)C(=O)N(C[C@@]1(c3cc4nc(N5CCNC(=O)C5)ccc4o3)NC(=O)NC1=O)C2 [Compound 1700] | – | – | – | – | 0.105 µM·h | Ki ([3]; Ki): 0.6 nM |
| COc1ccc2c(c1F)C(=O)N(C[C@@]1(c3cc4nc(N5CC(=O)NC5=O)c(F)cc4o3)NC(=O)NC1=O)C2 [Compound 1330] | – | – | – | – | 3.19 µM·h | Ki ([3]; Ki): 0.39 nM |
| COc1ccc2c(c1)C(=O)N(C[C@@]1(c3cc4nc(-c5ccc(N6CCOCC6)nc5)ccc4o3)NC(=O)NC1=O)C2 [Compound 2151] | 0.692 µM·h | 800 nM | – | – | – | – |
| CCOC(=O)N1CCc2oc([C@]3(CN4Cc5ccc(OC)cc5C4=O)NC(=O)NC3=O)cc2C1 [Compound 2437] | – | – | – | – | – | RR AUC (rapid rat AUC, rrAUC) [1, 8]: 4.026 µM·h; IC50 [2, 6]: 654 nM |
| CCCN1CCN(c2ccc3oc([C@]4(CN5Cc6ccc(OC)c(F)c6C5=O)NC(=O)NC4=O)cc3n2)CC1 [Compound 1708] | – | – | – | 175 nM | 10.4 µM·h | – |
| COc1ccc2c(c1)C(=O)N(C[C@@]1(c3cc4nc(N5CC(C)NC(C)C5)ccc4o3)NC(=O)NC1=O)C2 (some centres unmarked) [Compound 2120] | 5.19 µM·h | 1200 nM | – | – | – | – |

— patent US8569336B2, “Compounds for the treatment of inflammatory disorders” (priority 2008, dated 2013)
